{"source": "patent US20250354930A1", "about": "“IONIC LIQUID ENCAPSULATION OF NIR DYES FOR THE IMPROVEMENT OF BLOODSTAIN DETECTION” (University of Mississippi, priority 2024, published 2025)", "key": {"[1]": {"conditions": "10 μM dye; IL scanned 0-240 mM or additive at 160 mM"}, "[2]": {"target": "T1, human serum albumin (HSA) (Homo sapiens, UniProt P02768)", "T1 sequence (P02768 25-609)": "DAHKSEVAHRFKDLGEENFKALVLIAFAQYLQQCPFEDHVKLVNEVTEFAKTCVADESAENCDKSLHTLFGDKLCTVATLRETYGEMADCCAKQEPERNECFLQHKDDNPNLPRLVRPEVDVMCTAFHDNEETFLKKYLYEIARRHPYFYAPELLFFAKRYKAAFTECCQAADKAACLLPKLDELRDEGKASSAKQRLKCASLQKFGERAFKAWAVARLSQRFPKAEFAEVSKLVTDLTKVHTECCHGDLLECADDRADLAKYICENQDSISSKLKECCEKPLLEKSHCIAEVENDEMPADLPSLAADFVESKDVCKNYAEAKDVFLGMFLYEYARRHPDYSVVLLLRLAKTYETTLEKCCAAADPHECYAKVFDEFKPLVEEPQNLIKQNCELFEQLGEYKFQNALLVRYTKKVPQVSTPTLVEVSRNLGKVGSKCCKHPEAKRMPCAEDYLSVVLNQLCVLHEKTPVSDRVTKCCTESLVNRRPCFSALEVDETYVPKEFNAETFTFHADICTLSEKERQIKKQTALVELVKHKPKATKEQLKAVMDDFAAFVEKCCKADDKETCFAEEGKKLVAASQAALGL", "conditions": "dissolved in human serum albumin (HSA); cited from earlier work"}, "[3]": {"target": "T1, human serum albumin (HSA)", "conditions": "for free energy of binding: calculated from KA"}, "[4]": {"conditions": "in the presence of fetal bovine serum; cited from earlier work"}, "HSA [5]": {"target": "T2, HSA (Homo sapiens, UniProt P02768)", "T2 sequence (P02768 25-609)": "as above", "assay": "Circular dichroism spectroscopy of HSA", "conditions": "1 mg/mL HSA; 10 μM SO3SQ, with or without 160 mM CG (1:1)", "protocol": "CD experiments to determine the impact the 1:1 SO3SQ and CG 1:1 may have on HSA and DNA were performed on a Jasco J-1500 CD spectrophotometer. The measurements were performed using a Jasco Spectrosil 1 mm path length cuvette. Samples containing HSA were prepared at 1 mg/mL in either water, 10 μM SO3SQ in water, and 10 μM SO3SQ in water with 1:1 160 mM CG 1:1 added. The protein scans were conducted at a 200-260 nm range. For measurements involving DNA, bacterial plasmid DNA was used, and the DNA concentration was maintained at 12 nM across all samples due to high instrument sensitivity. CG 1:1 was added at 2.5% v/v to achieve a 160 mM concentration. A solution of 9.14 μM SO3SQ in water was made and added to DNA solutions in 5 μL increments. These scans were completed over a 200-350 nm range."}, "HSA [6]": {"target": "T2, HSA", "assay": "Isothermal titration calorimetry of HSA titrated into SO3SQ", "type": "binding", "protocol": "ITC measurements were carried out in triplicate on a Malvern VP-ITC. Uncertainties are provided as the standard error of the mean. The solvent was either buffer alone (25 mM sodium phosphate, pH 6.5) or buffer plus 40 mM CG 1:1. HSA was dialyzed into the appropriate buffer, and solid SO3SQ was dissolved in dialysis buffer to ensure a close buffer match. This was necessary in order to prevent strong heats of dilution that are often observed when ILs are titrated in separately. Both HSA and dye solutions were degassed for 10 min before experiments. A typical experiment contained 60 μM HSA in the syringe and 60 μM dye in the calorimetry cell. A total of 28 injections were typically used, each 10 μL in volume, and 10 min of equilibration time was allowed to occur between injections. Measurements were performed at 25° C. Because injection heats and corresponding signal-to-noise ratios were small, manual baseline fitting was performed using Origin software. Since K and N cannot be determined using this ratio of HSA and dye in the presence of CG 1:1, only the enthalpy is accessible from these measurements. The enthalpy for each ITC experiment was reported as the average enthalpy of the first 10 useable injections, which were all similar. […] For reverse titrations, performed without CG 1:1, N, K, and ΔH were fit using CHASM, and the heat of the final injection was used as the baseline. The number of binding sites per HSA molecule was reported as the inverse value of N from fitting, as is typical for reverse titrations. Finally, titrations were also performed where SO3SQ or HSA was systematically removed, one at a time, in the presence and absence of CG 1:1, to determine whether dilution heats were contributing to the measured enthalpy. In all cases, dilution heats were small, less than 10% of the observed enthalpy, and no further corrections were made."}, "Aqueous solubility": {"assay": "Aqueous solubility", "type": "physicochemical", "conditions": "water"}, "HSA [7]": {"target": "T2, HSA", "assay": "Dynamic light scattering size and zeta potential of HSA systems", "conditions": "0.1 mg/mL HSA in 10 μM SO3SQ, no IL"}, "[8]": {"assay": "Conductivity measurements of 160 mM solutions", "type": "physicochemical", "protocol": "Conductivity was measured using a Thermo Scientific Orion Star […] conductivity meter using a DuraProbe 4-electrode conductivity cell. […] The clean probe was introduced into each solution to record the conductivity. The conductivity was measured in triplicate for each of the solutions."}, "[9]": {"conditions": "absence of CG 1:1, reverse titration, 25° C."}}, "note": "Where “and” joins values, the source holds several entries; their conditions need not be identical. Identical values can stand only once. Like-named read-outs stand apart in the source and are kept apart here."}
{"smiles": "O=C(O)CO", "note": "[glycolic acid]", "values": [{"measurement": "effect on the dye's fluorescence in the presence of blood", "setting": "[1]", "value": "little impact"}]}
{"smiles": "CC1=C(c2ccc(OCCCCS(=O)(=O)O)cc2)/C(=C2/C(=O)C(c3c(-c4ccc(OCCCCS(=O)(=O)[O-])cc4)c(C)c4ccccn34)C2O)[n+]2ccccc21", "note": "(stereo not drawn) [SO3SQ]", "values": [{"measurement": "fluorescence quantum yield ΦF", "setting": "[2]", "value": 61.1, "unit": "%"}, {"measurement": "apparent association constant KA,app of HSA in SO3SQ", "setting": "[3]; 10 μM SO3SQ, no IL", "value": "3.2×10^5 and 2.0×10^5"}, {"measurement": "free energy of binding", "setting": "[3]; system containing just the dye", "value": -7.4, "unit": "kcal/mol"}, {"measurement": "free energy of binding", "setting": "[3]; system containing the dye and IL", "value": -8.0, "unit": "kcal/mol"}, {"measurement": "fluorescence quantum yield ΦF", "setting": "[4]", "value": 58, "unit": "%"}, {"measurement": "effect on the secondary structure of HSA", "setting": "HSA [5]", "value": "increase in the alpha helical content"}, {"measurement": "K", "setting": "HSA [6]; [9]", "value": "(1.8±0.4)×10^6"}, {"measurement": "N (number of binding sites per HSA molecule)", "setting": "HSA [6]; [9]", "value": "11.5±0.4"}, {"measurement": "heat of binding, ΔH", "setting": "HSA [6]; [9]", "value": "-18 ± 2", "unit": "kcal/mol"}, {"measurement": "ΔG°", "setting": "HSA [6]; [9]", "value": "-8.50 ± 0.13", "unit": "kcal/mol"}, {"measurement": "enthalpy of binding between HSA and SO3SQ, ΔH", "setting": "HSA [6]; buffer containing 40 mM ionic liquid, 25 mM sodium phosphate pH 6.5, 25° C.", "value": "6.1 ± 0.2", "unit": "kcal/mol"}, {"measurement": "solubility", "setting": "Aqueous solubility", "value": "~60", "unit": "µM"}, {"measurement": "average charge (zeta potential)", "setting": "HSA [7]", "value": "−20±5", "unit": "mV"}, {"measurement": "average size", "setting": "HSA [7]", "value": "150±20", "unit": "nm"}]}
{"smiles": "[Cl-].[Na+]", "note": "[NaCl]", "values": [{"measurement": "Conductivity, Mean ± SD", "setting": "[8]", "value": "20.4 ± 0.2", "unit": "μS/cm"}, {"measurement": "Conductivity, Replicate 1", "setting": "[8]", "value": 20.2, "unit": "μS/cm"}, {"measurement": "Conductivity, Replicate 2", "setting": "[8]", "value": 20.6, "unit": "μS/cm"}, {"measurement": "Conductivity, Replicate 3", "setting": "[8]", "value": 20.3, "unit": "μS/cm"}, {"measurement": "average conductance", "setting": "[8]", "value": "20.4±0.2", "unit": "mS/cm"}, {"measurement": "conductance relative to that of the IL", "setting": "[8]", "value": 100, "unit": "×"}]}
